# The Kinase Knowledgebase extract (Sharma et al. 2016)
# Target: CDK2 (UniProt P24941)
# Test: Enzyme Assay
row,SMILES,IC50
1,CC(C)n1cnc2c(NCCCc3ccccc3)nc(N(CCO)CCO)nc21,5000 nM
2,CC(C)n1cnc2c(NCc3ccc(-c4ccccc4)cc3)nc(N(C)c3ccco3)nc21,> 5000 nM
3,CC(C)Cn1cnc2c(NCc3cccnc3)nc(Cl)nc21,> 5000 nM
4,Clc1nc(NCc2ccncc2)c2ncn(C3CCCC3)c2n1,> 5000 nM
5,CC(C)n1cnc2c(NCC3CC3)nc(N(CCO)CCO)nc21,2000 nM
6,CNc1ccccc1C1CCCN1c1nc(NCc2ccc(OC)cc2)c2ncn(C(C)C)c2n1 (stereo not given),> 5000 nM
7,COc1ccc(CNc2nc(NCC(CO)CCO)nc3c2ncn3C(C)C)cc1 (stereo not given),> 5000 nM
8,COc1ccc(CNc2nc(NCC(O)c3c[nH]c4ccccc34)nc3c2ncn3C(C)C)cc1 (stereo not given),2000 nM
9,COC(=O)c1ccc(CNc2nc(Cl)nc3[nH]cnc23)cc1,> 5000 nM
10,CC(C)n1cnc2c(NCc3ccc(-c4ccccc4)cc3)nc(NCCO)nc21,3000 nM

# Molecules with a lower IC50, results first:
row,IC50,SMILES
1,1000 nM,COc1ccc(CNc2nc(NCCCC#N)nc3c2ncn3C(C)C)cc1
2,1000 nM,COc1ccc(CNc2nc(NCc3cccnc3)nc3c2ncn3C(C)C)cc1
3,600 nM,CC(C)n1cnc2c(NCc3ccc(C4C=CC=CC4=S)cc3)nc(N(CCO)CCO)nc21 (stereo not given)
4,1000 nM,COc1ccc(CNc2nc(NCC(O)CN)nc3c2ncn3C(C)C)cc1 (stereo not given)
5,1000 nM,COc1ccc(CNc2nc(N)nc3c2ncn3C(C)C)cc1
